# Experimental data from US20060223891A1, “Use of alverine, alone or in combination with a tricyclic antidepressant or an antidepressant which is a specific inhibitor of serotonin reuptake for treatment of depression” (CEREP, priority 2003, published 2006).
# Values joined by “and” are separate entries in the source; they are usually repeats but may differ in a detail not shown here. Identical values can stand only once. “Also recorded” adds a separate entry of the source. Counter-ions that a name gives are not always drawn.
# Assays:
# Type in all cases: in vivo
# Swiss mice CD1 [1] = assay: forced swimming test, Alverine associated with fluoxetine, intraperitoneally (Example 3, test no. 2); settings: for duration of immobilisation as compared to the sample group (in words): tested alone at 3 mg/kg; for immobility time, individual mice / immobility time, Average: 30 minutes prior to the test; for immobility time, Average: n = 10; for % of variation of immobility time: vs average of excipient group
# Procedure: The treatments are co-administered 30 minutes prior to the test in a coded and random order intraperitoneally with a volume of 10 ml/kg (5 ml/kg for each administration). […] The total duration of immobility is measured over the last four minutes of the test, six minutes in total. A mouse is deemed immobile when it ceases struggling and floats in the water without movements superfluous to those allowing it to keep its. head above water. A drop in immobility time is the reflection of an antidepressant effect. The results are expressed in total duration of immobility in seconds and as a percentage of variation of the total duration of immobility calculated from the average value of the sample group. The statistical significance between two treated groups is determined by using a Student test (P<0.05). The data are analysed using <<SigmaStat>> software.
# Swiss mice CD1 [2] = assay: forced swimming test, Alverine administered orally (Example 2); set-up: key to Dunnett test: * indicates a significant difference for p < 0.05 (Dunnett test); ns indicates an insignificant result; settings: for immobility time, individual mice / immobility time, Average: 60 minutes prior to the test; for immobility time, Average: N = 10; for % of variation of immobility time: vs average of excipient group; for Dunnett test: vs excipient group
# Procedure: Antidepressive Activity Test on Alverine administered orally on a batch of mice.
# To establish the advantages according to the present invention a study, was carried out on a batch of 50 mice. They were divided into 5 groups of 10 mice each. These are Swiss mice CD1 (CD-1® (ICR) IGS (Charles River France) weighing between 25 and 35 g.
# The substance to be tested is Alverine citrate (Sigma, in the form of dry powder, with a salt/base ratio of 1.68) comparatively to imipramine chlorhydrate (Sigma, in the form of dry powder, with a salt/base ratio of 1.13).
# The fifth group is treated with imipramine (tricyclic antidepressant) at a dose of 30 mg/kg The doses are expressed in terms of free active substances. The substances are prepared extemporaneously in the excipient. […]
# One hour following administration the five groups of mice are subjected to the forced swimming test, in a vertical Plexiglas cylinder (height 24 cm, diameter 9 cm) containing water (height 6 cm, temperature 18-22° C.). The total duration of immobility is measured over the last four minutes of the test, six minutes in total. A mouse is deemed immobile when it ceases struggling and floats in the water without movements superfluous to those allowing it to keep its head above water. A drop in immobility time is the reflection of an antidepressant effect.
# The results are expressed in total duration of immobility in seconds and as a percentage of variation of the total duration of immobility calculated from the average value of the sample group.
# The statistical significance between the treated groups and the sample group is determined by a Dunnett test using the residual variation according to analysis of the. variance (P<0.05). The data are analysed using <<SigmaStat>> software.
# Swiss mice CD1 [3] = assay: forced swimming test, Alverine associated with imipramine, intraperitoneally (Example 3, test no. 1); set-up: key to Dunnett test: * indicates a significant difference for p < 0.05 (Dunnett test); ns indicates an insignificant result; settings: for immobility time, individual mice / immobility time, Average / % of variation of immobility time / Dunnett test: intraperitoneally; for immobility time, individual mice / immobility time, Average: 30 minutes prior to the test; for immobility time, Average: n = 10; for % of variation of immobility time: vs average of excipient group; for Dunnett test: vs excipient group; for duration of immobilisation as compared to the sample group (in words): tested alone at 3 mg/kg
# Procedure: The treatments are co-administered 30 minutes prior to the test in a coded and random order intraperitoneally with a volume of 10 ml/kg (5 ml/kg for each administration). Thirty minutes following administration the six groups of mice are subjected to the forced swimming test, in a vertical Plexiglas cylinder (height 24 cm, diameter 9 cm) containing water (height 6 cm, temperature 18-22° C.). The total duration of immobility is measured over the last four minutes of the test, six minutes in total. A mouse is deemed immobile when it ceases struggling and floats in the water without movements superfluous to those allowing it to keep its. head above water. A drop in immobility time is the reflection of an antidepressant effect. The results are expressed in total duration of immobility in seconds and as a percentage of variation of the total duration of immobility calculated from the average value of the sample group. The statistical significance between two treated groups is determined by using a Student test (P<0.05). The data are analysed using <<SigmaStat>> software.
# Swiss mice CD1 [4] = assay: forced swimming test, Alverine administered intraperitoneally (Example 1); set-up: key to Dunnett test: * indicates a significant difference for p < 0.05 (Dunnett test); ns indicates an insignificant result; settings: for immobility time, individual mice / immobility time, Average: 30 minutes prior to the test; for immobility time, Average: N = 10; for % of variation of immobility time: vs average of excipient group; for Dunnett test: vs excipient group
# Procedure: Antidepressive Activity Test on Alverine administered intraperitoneally on a batch of mice. To establish the advantages according to the present invention a study was carried out on a batch of 50 mice. They were divided into 5 groups of 10 mice each. These are Swiss mice CD1 (CD-1®(ICR) IGS (Charles River France) weighing between 25 and 35 g. The substance to be tested is Alverine citrate (Sigma, in the form of dry powder, with a salt/base ratio of 1.68) comparatively to imipramine chlorhydrate (Sigma, in the form of dry powder, with a salt/base ratio of 1.13). The doses are expressed in terms of free active substances. The substances are prepared extemporaneously in the excipient. The treatments are administered 30 minutes prior to the test in a coded and random order intraperitoneally with a volume of 10 ml/kg. Thirty minutes following administration the five groups of mice are subjected to the forced swimming test, in a vertical Plexiglas cylinder (height 24 cm, diameter 9 cm) containing water (height 6 cm, temperature 18-22° C.). The total duration of immobility is measured over the last four minutes of the test, six minutes in total. A mouse is deemed immobile when it ceases struggling and floats in the water without movements superfluous to those allowing it to keep its head above water. A drop in immobility time is the reflection of an antidepressant effect. The results are expressed in total duration of immobility in seconds and as a percentage of variation of the total duration of immobility calculated from the average value of the sample group. The statistical significance between the treated groups and the sample group is determined by a Dunnett test using the residual variation according to analysis of the variance (P<0.05). The data are analysed using <<SigmaStat>> software. The results obtained are presented in the form of the following table, and in the form of a histogram, in FIG. 1.
# [5] = 3 mg/kg alone, intraperitoneally
# [6] = 10 mg/kg alone, intraperitoneally
smiles,measurement,setting,value
"CNCCC(Oc1ccc(C(F)(F)F)cc1)c1ccccc1 (stereo not shown) [Fluoxetine, fluoxetine]",duration of immobilisation as compared to the sample group (in words),Swiss mice CD1 [1],"decrease, statistically insignificant"
"CCN(CCCc1ccccc1)CCCc1ccccc1 [Alverine citrate, N-ethyl-3,3′-diphenyldipropylamine]","immobility time, individual mice",Swiss mice CD1 [2]; 10 mg/kg orally,95 s and 104 s and 111 s and 126 s and 108 s and 78 s and 115 s and 106 s and 113 s and 86 s
same,"immobility time, Average",Swiss mice CD1 [2]; 10 mg/kg orally,104.2 s
same,% of variation of immobility time,Swiss mice CD1 [2]; 10 mg/kg orally,−30%
same,Dunnett test,Swiss mice CD1 [2]; 10 mg/kg orally,ns
same,"immobility time, individual mice",Swiss mice CD1 [2]; 30 mg/kg orally,80 sec and 64 sec and 70 sec and 105 sec (3×) and 41 sec and 63 sec and 113 sec and 104 sec
same,"immobility time, Average",Swiss mice CD1 [2]; 30 mg/kg orally,85.0 s
same,% of variation of immobility time,Swiss mice CD1 [2]; 30 mg/kg orally,−43%
same,Dunnett test,Swiss mice CD1 [2]; 30 mg/kg orally,* (* indicates a significant difference for p < 0.05 (Dunnett test))
same,"immobility time, individual mice",Swiss mice CD1 [2]; 100 mg/kg orally,129 s and 67 s and 6 s and 105 s and 75 s and 81 s and 5 s and 37 s and 32 s and 52 s
same,"immobility time, Average",Swiss mice CD1 [2]; 100 mg/kg orally,58.9 s
same,% of variation of immobility time,Swiss mice CD1 [2]; 100 mg/kg orally,−60%
same,Dunnett test,Swiss mice CD1 [2]; 100 mg/kg orally,* (* indicates a significant difference for p < 0.05 (Dunnett test))
same,secondary effect observed,"Swiss mice CD1 [2]; mice treated orally, 10 to 100 mg/kg",no secondary effect was observed
same,antidepressant effect (in words),"Swiss mice CD1 [2]; orally, 10 to 100 mg/kg, mice",significant antidepressant effect; also recorded: antidepressant effect proportional to the dose
same,"immobility time, individual mice",Swiss mice CD1 [3]; 3 mg/kg alone,108 s and 134 s and 113 s and 65 s and 85 s and 73 s and 79 s and 125 s and 95 s and 140 s
same,"immobility time, Average",Swiss mice CD1 [3]; 3 mg/kg alone,101.7 s
same,% of variation of immobility time,Swiss mice CD1 [3]; 3 mg/kg alone,−30%
same,Dunnett test,Swiss mice CD1 [3]; 3 mg/kg alone,ns
same,"immobility time, individual mice",Swiss mice CD1 [3]; 10 mg/kg alone,28 s and 10 s and 1 s and 74 s and 22 s and 70 s and 69 s and 67 s and 42 s and 57 s
same,"immobility time, Average",Swiss mice CD1 [3]; 10 mg/kg alone,44.0 s
same,% of variation of immobility time,Swiss mice CD1 [3]; 10 mg/kg alone,−70%
same,Dunnett test,Swiss mice CD1 [3]; 10 mg/kg alone,* (* indicates a significant difference for p < 0.05 (Dunnett test))
same,duration of immobilisation as compared to the sample group (in words),Swiss mice CD1 [3],"decrease, statistically insignificant"
same,"immobility time, individual mice",Swiss mice CD1 [1]; [5],119 sec and 138 sec and 117 sec (2×) and 110 sec and 73 sec and 47 sec and 124 sec and 72 sec and 32 sec
same,"immobility time, Average",Swiss mice CD1 [1]; [5],94.9 s
same,% of variation of immobility time,Swiss mice CD1 [1]; [5],−37%
same,"immobility time, individual mice",Swiss mice CD1 [1]; [6],63 sec and 75 sec (2×) and 77 sec and 46 sec and 6 sec and 113 sec and 89 sec and 104 sec and 125 sec
same,"immobility time, Average",Swiss mice CD1 [1]; [6],77.3 s
same,% of variation of immobility time,Swiss mice CD1 [1]; [6],−49%
same,Dunnett test,"Swiss mice CD1 [1]; 10 mg/kg alone, intraperitoneally, vs excipient group",* (* indicates a significant difference for p < 0.05 (Dunnett test))
same,duration of immobilisation as compared to the sample group (in words),Swiss mice CD1 [1],"decrease, statistically insignificant"
same,"immobility time, individual mice",Swiss mice CD1 [4]; 3 mg/kg intraperitoneally,128 s and 82 s and 151 s and 132 s and 127 s and 88 s and 85 s and 99 s and 93 s and 118 s
same,"immobility time, Average",Swiss mice CD1 [4]; 3 mg/kg intraperitoneally,110.3 s
same,% of variation of immobility time,Swiss mice CD1 [4]; 3 mg/kg intraperitoneally,−15%
same,Dunnett test,Swiss mice CD1 [4]; 3 mg/kg intraperitoneally,ns
same,"immobility time, individual mice",Swiss mice CD1 [4]; 10 mg/kg intraperitoneally,29 s and 86 s and 28 s and 30 s and 90 s and 99 s and 65 s and 129 s and 57 s and 3 s
same,"immobility time, Average",Swiss mice CD1 [4]; 10 mg/kg intraperitoneally,61.6 s
same,% of variation of immobility time,Swiss mice CD1 [4]; 10 mg/kg intraperitoneally,−53%
same,Dunnett test,Swiss mice CD1 [4]; 10 mg/kg intraperitoneally,* (* indicates a significant difference for p < 0.05 (Dunnett test))
same,"immobility time, individual mice",Swiss mice CD1 [4]; 30 mg/kg intraperitoneally,97 sec and 3 sec and 66 sec and 36 sec and 0 sec and 15 sec and 7 sec (2×) and 16 sec and 12 sec
same,"immobility time, Average",Swiss mice CD1 [4]; 30 mg/kg intraperitoneally,25.9 s
same,% of variation of immobility time,Swiss mice CD1 [4]; 30 mg/kg intraperitoneally,−80%
same,Dunnett test,Swiss mice CD1 [4]; 30 mg/kg intraperitoneally,* (* indicates a significant difference for p < 0.05 (Dunnett test))
same,antidepressant effect (in words),"Swiss mice CD1 [4]; injected intraperitoneally, 3 to 30 mg/kg, mice",antidepressant effect proportional to the dose; also recorded: significant antidepressant effect
"CN(C)CCCN1c2ccccc2CCc2ccccc21 [Imipramine, imipramine]",duration of immobilisation as compared to the sample group (in words),Swiss mice CD1 [3],"decrease, statistically insignificant"
